Data on 4 compounds can be found in EPA's ToxRefDB 2.

Data set [1] has as its system rabbit. As to conditions: Subchronic dermal toxicity, new zealand white, Topical, dose end: 90 day, group: systemic, systemic / in life observation / clinical signs / erythema.
Data set [2] relates to rat. Conditions: Subchronic oral toxicity in rodents, sprague dawley, Gavage/Intubation, dose end: 90 day, group: systemic.
Data set [3] relates to rat. Conditions: Neurotoxicity screening battery; sprague dawley; Oral; Gavage/Intubation; dose end: 13 week; group: cannot be grouped; systemic / in life observation / body weight / body weight gain + systemic / in life observation / clinical signs / red or crusty deposits ….
Data set [4] relates to rat. As to conditions: Prenatal developmental toxicity study, long evans, Oral, Gavage/Intubation, dose end: 15 GD.
Data set [5] has as its system rabbit. Conditions: Prenatal developmental toxicity study; new zealand white; Dermal; Topical; dose end: 18 GD; group: maternal; systemic / in life observation / clinical signs / [other].
Data set [6] concerns rat. Conditions: Prenatal developmental toxicity study; sprague dawley; Dermal; Topical; dose end: 15 GD; group: maternal; systemic / in life observation / body weight / body weight gain + systemic / in life observation / clinical signs / [other].
The test system of another data set is dog. Conditions: Sub-acute repeat dose toxicity; beagle; Oral; Gavage/Intubation; dose end: 28 day; group: systemic; systemic / clinical chemistry / alanine aminotransferase (alt/sgpt) / alanine aminotransferase (alt/sgpt) + systemic / clinical chemistry / ….
In data set [7] the test system is rat. As to conditions: Sub-acute repeat dose toxicity; sprague dawley; Oral; Gavage/Intubation; dose end: 28 day; group: systemic; systemic / clinical chemistry / alanine aminotransferase (alt/sgpt) / alanine aminotransferase (alt/sgpt) + systemic / clinical chemistry / ….
The subject of data set [8] is rat. Conditions: Carcinogenicity, fischer, Oral, Gavage/Intubation, dose end: 103 week, group: systemic.
The subject of another data set is mouse. Conditions: Subchronic oral toxicity in rodents, b6c3f1, Gavage/Intubation, dose end: 13 week, group: systemic.
Data set [9] relates to rat. Conditions: Subchronic oral toxicity in rodents, fischer, Gavage/Intubation, dose end: 13 week, group: systemic.
Setting [10] is: systemic / organ weight / liver / relative to body weight.
Where [11] appears, read: group: developmental, developmental / developmental malformation / bone / irregular ossification + developmental / developmental malformation / general / runts + ….
Where [12] appears, read: group: developmental, developmental / developmental malformation / bone / irregular ossification + developmental / developmental malformation / kidney / ….
[13] abbreviates: group: maternal, systemic / in life observation / clinical signs / [other] + systemic / in life observation / clinical signs / hyperactivity + reproductive….
Where [14] appears, read: systemic / pathology microscopic / kidney / hyperplasia + systemic / pathology microscopic / kidney / nephropathy.
Where [15] appears, read: systemic / pathology microscopic / kidney / hyperplasia + systemic / pathology microscopic / kidney / nephropathy + systemic / in life ….
Where [16] appears, read: systemic / in life observation / mortality / mortality + systemic / pathology microscopic / kidney / degeneration + systemic / pathology ….
The mark [17] stands for this setting: systemic / in life observation / clinical signs / defecation (diarrhea) + systemic / in life observation / clinical signs / lethargy + ….

For the compound `CN(C)C(=S)[S-].[Na+]` [Sodium dimethyldithiocarbamate], the LEL was found to be 50 mg/kg/day with rabbit [1], 0.5 mg/kg/day with rat [2] (setting [10]) and 250 mg/kg/day in the data set with rat [3]. Moreover, the lowest observed adverse effect level (LOAEL) (as a rule, the lowest tested level that showed an adverse finding) in the data set on rabbit [1] was 50 mg/kg/day; in the data set with rat [2] (systemic / clinical chemistry / alkaline phosphatase (alp/alk) / alkaline phosphatase (alp/alk) + systemic / clinical chemistry / glucose / …), 250 mg/kg/day; in the data set on rat [3] it was 250 mg/kg/day. Further, the results for the NEL in the data set with rabbit [1], with rat [2] (setting [10]) and in the data set with rat [3] were under 50 mg/kg/day, under 0.5 mg/kg/day and 5 mg/kg/day, respectively. Further, the figures for the no-observed-adverse-effect level (NOAEL) in the data set with rabbit [1], with rat [2] (systemic / organ weight / liver / relative to body weight + systemic / clinical chemistry / alkaline phosphatase (alp/alk) / alkaline …) and in the data set on rat [3] were under 50 mg/kg/day, 5 mg/kg/day and 5 mg/kg/day, respectively.
Take `NCCO` [Ethanolamine]: the LOAEL is over 500 mg/kg/day in the data set with rat [4] (setting [11]), over 500 mg/kg/day in the data set with rat [4] (setting [13]), over 75 mg/kg/day in the data set with rabbit [5] and over 225 mg/kg/day in the data set with rat [6]. Also, the NOAEL (commonly the highest tested level that showed no adverse finding) in the data set with rat [4] (setting [11]) was at least 500 mg/kg/day; in the data set on rat [4] (setting [13]), at least 500 mg/kg/day; in the data set on rabbit [5] it was at least 75 mg/kg/day; with rat [6] it was at least 225 mg/kg/day. Moreover, the LEL worked out at 50 mg/kg/day with rat [4] (setting [12]), 500 mg/kg/day in the data set with rat [4] (setting [13]), 75 mg/kg/day with rabbit [5] and 225 mg/kg/day with rat [6]. In addition, the NEL with rat [4] (setting [12]) was under 50 mg/kg/day; in the data set with rat [4] (group: maternal, systemic / in life observation / clinical signs / [other] + systemic / in life observation / clinical signs / hyperactivity), 300 mg/kg/day; in the data set on rabbit [5], 25 mg/kg/day; with rat [6], 75 mg/kg/day.
As to `CNS(=O)(=O)c1cc(C(=O)N2CCC(CCN3C4CCC3CC(n3c(C)nc5ccccc53)C4)(c3cccc(F)c3)CC2)c(Cl)cc1F` (stereo not drawn), in the data set with dog, the LEL is 250 mg/kg/day, the LOAEL is over 750 mg/kg/day, the NEL was under 250 mg/kg/day and the NOAEL is at least 750 mg/kg/day. Further, in the data set with rat [7], the LEL is 500 mg/kg/day, the lowest observed adverse effect level (LOAEL) is over 2000 mg/kg/day, the NEL was under 500 mg/kg/day and the no observed adverse effect level (NOAEL) is at least 2000 mg/kg/day.
Consider `Nc1cc([N+](=O)[O-])ccc1O` [2-Amino-4-nitrophenol], for which the figures for the LOAEL in the data set on rat [8] (setting [14]), in the data set with mouse (setting [16]) and in the data set on rat [9] (setting [17]) were 125 mg/kg/day, over 1000 mg/kg/day and over 1000 mg/kg/day, respectively. Further, the NOAEL with rat [8] (setting [14]) is under 125 mg/kg/day; with mouse (setting [16]), at least 1000 mg/kg/day; in the data set on rat [9] (setting [17]), at least 1000 mg/kg/day. In addition, the LEL came to 125 mg/kg/day with rat [8] (setting [15]), 500 mg/kg/day with mouse (systemic / in life observation / mortality / mortality) and 250 mg/kg/day with rat [9] (systemic / organ weight / liver / absolute). Besides, the NEL in the data set with rat [8] (setting [15]) was under 125 mg/kg/day; in the data set on mouse (setting [16]), 250 mg/kg/day; in the data set with rat [9] (setting [17]), 125 mg/kg/day.
